Structures are written as SMILES.

Assay [1] addresses human recombinant dopamine D3 receptor (Homo sapiens (Human), UniProt P35462). Put plainly: Test of binding inhibition for the human dopamine D3 receptor ([3H]-Metylspiperone SPA binding). The conditions noted are these: [3H]-Metylspiperone 2 nM, Jump-In HEK cell membranes, read-out: hD3_Ki. As for the experimental part: Cell membranes: Jump-In HEK cell membranes expressing human recombinant dopamine D3 receptor (4 μg/well)
(§1) Non-specific ligand: (final concentration) 10 μM Butaclamol [(+)-Butaclamol Hydrochioride, D033, Sigma]
(§2) SPA beads: SPA beads [WGA PVT SPA Scintillatiion Beads, RPNQ0001 (500 mg), RPNQ0060 (2 g), PerkinElmer] (0.2 mg/well)
(§3) Incubation time and temperature: 120 min at 25° C.
(§4) Butaclamol or the compounds of the present invention were weighed and DMSO was added to make a 10 mM solution. This solution was diluted to each concentration.
[^3H]-Metylspiperone was weighed and the buffer solution was added to make a 6 nM solution.
(§5) SPA beads were weighed and stirred in water to make a 50 mg/mL solution. Using this solution, a mixed solution with the cell membranes was prepared.
Jump-In HEK Cell membranes (final reaction amount: 4 μg/well), SPA beads (final reaction amount: 0.2 mg/well) and Tris-HCl buffer were mixed and the mixed solution was left still for more than 60 min at 4° C. Then, 50 μL of the mixture was added to each well of the plate. In addition, 25 μL of 6 nM [^3H]-Metylspiperone (final concentration: 2 nM) was added to each well. […] Non-specific binding was calculated based on the radioactivity of [^3H]-Metylspiperone in the presence of 10 μM non-labeled Butaclamol. The total binding was calculated based on the radioactivity of [^3H]-Metylspiperone in the absence of the compounds of the present invention (Vehicle). The Ki values were calculated from dose-response curves.
(§6) Binding activities of the compounds of the present invention were calculated from the following Binding Inhibition Rate (%): Inhibition Rate (%)=[1−(c−a)(b−a)]×100(%) • a: Average cpm of non-specific binding • b: Average cpm of total binding • c: Cpm in the presence of each test compound

The target in assay [2] is human recombinant dopamine D2 receptor (Homo sapiens (Human), UniProt P14416). Briefly: Test of binding inhibition for the human dopamine D2 receptor ([3H]-Metylspiperone SPA binding). Particulars: [3H]-Metylspiperone 1.2 nM, Jump-In HEK cell membranes, read-out: hD2_Ki. As for the experimental part:
Cell membranes: Jump-In HEK cell membranes expressing human recombinant dopamine D2 receptor (2 μg/well)
Buffer solution: 50 mM Tris-HCl (35409-45, Nacalai Tesque) (pH 7.4) containing 120 mM NaCl (31320-05, Nacalai Tesque), 1 mM MgCl2.6H2O (20909-55, Nacalai Tesque), 5 mM KCl (28514-75, Nacalai Tesque) and 2 mM CaCl2 (067-31, Nacalai Chemical, Ltd)
Radioligand: (final concentration) 1.2 nM [^3H]-Metylspiperone ([^3H—N-methyl-]-Metylspiperone, NET-856, 83.8 Ci/mmol, PerkinElmer)
as §1, §2, §3, §4
[^3H]-Metylspiperone was weighed and the buffer solution was added to make a 3.6 nM solution.
as §5
225 nL of the solutions of the non-specific ligand or the compounds of the present invention at each concentration (in case of vehicle, final concentration 0.3% DMSO) were added in each well of a 384-well white/clear bottom microplate (3706, Corning). Jump-In HEK Cell membranes (final reaction amount: 2 μg protein/well), SPA beads (final reaction amount: 0.2 mg/well) and the buffer were mixed and the mixed solution was left still for more than or equal to 1 h at 4° C. Then, 50 μL of the mixture was added to each well of the plate. In addition, 25 μL of 3.6 nM [^3H]-Metylspiperone (final concentration: 1.2 nM) was added to each well. The plate was sealed by putting TopSeal-A 96/384 well (6050185, PerkinElmer) on the top of the plate, mixed using stirring deaerator (Welltornado, FK-62, Sakaki) and incubated for 120 min at 25° C. After incubation, the radioactivity of [^3H]-Metylspiperone which was binded to D2 receptor was determined by liquid scintillation counter (1450 Microbeta, PerkinElmer) in each well. Non-specific binding was calculated based on the radioactivity of [^3H]-Metylspiperone in the presence of 10 μM non-labeled Butaclamol. The total binding was calculated using the radioactivity of [^3H]-Metylspiperone in the absence of the compounds of the present invention (Vehicle). The Ki values were calculated from dose-response curves.
as §6

Chain of human recombinant dopamine D2 receptor (P14416 whole entry): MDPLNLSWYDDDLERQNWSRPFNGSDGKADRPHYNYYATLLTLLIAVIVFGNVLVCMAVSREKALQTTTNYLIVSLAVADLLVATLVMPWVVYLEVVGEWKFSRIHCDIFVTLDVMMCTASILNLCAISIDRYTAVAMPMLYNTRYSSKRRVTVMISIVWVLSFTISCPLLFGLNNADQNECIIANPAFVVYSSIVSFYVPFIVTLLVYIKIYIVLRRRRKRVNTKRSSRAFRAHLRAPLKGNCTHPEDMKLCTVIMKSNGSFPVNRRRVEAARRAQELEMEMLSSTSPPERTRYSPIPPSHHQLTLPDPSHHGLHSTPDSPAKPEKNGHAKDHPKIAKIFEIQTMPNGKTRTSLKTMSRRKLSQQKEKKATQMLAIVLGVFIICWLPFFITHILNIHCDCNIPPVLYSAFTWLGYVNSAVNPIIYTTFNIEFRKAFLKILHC
Chain of human recombinant dopamine D3 receptor (P35462 whole entry): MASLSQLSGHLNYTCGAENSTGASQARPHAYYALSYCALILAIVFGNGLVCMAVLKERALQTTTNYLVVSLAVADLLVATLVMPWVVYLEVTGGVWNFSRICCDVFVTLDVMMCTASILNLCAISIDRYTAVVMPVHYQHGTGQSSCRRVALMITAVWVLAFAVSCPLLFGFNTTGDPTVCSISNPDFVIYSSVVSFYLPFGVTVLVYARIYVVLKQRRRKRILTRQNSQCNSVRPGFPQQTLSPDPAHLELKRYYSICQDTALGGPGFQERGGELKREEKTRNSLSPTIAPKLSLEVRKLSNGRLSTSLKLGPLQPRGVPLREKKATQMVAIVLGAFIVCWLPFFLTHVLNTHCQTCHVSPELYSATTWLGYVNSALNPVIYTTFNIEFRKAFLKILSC

With `Cc1ncc(CC(=O)N[C@H]2CC[C@H](CCN3CCc4ccc(N5CC(F)(F)C5)nc4CC3)CC2)s1` [II-066], the Ki is 0.84 nM in assay [1] and > 1900 nM in assay [2].
`Cc1ncc(CC(=O)N[C@H]2CC[C@](F)(CCN3CCc4nc(OCC(C)(F)F)sc4CC3)CC2)s1` [II-070]: the Ki came out at 0.44 nM in assay [1] and 820 nM in assay [2].
For `Cn1cc2c(C(=O)N[C@H]3CC[C@H](CCN4CCc5cnc(CCC(F)(F)F)nc5CC4)CC3)cccc2n1` [II-072], in that order: 0.48 nM and > 1800 nM.
As for `COc1cc(CC(=O)N[C@H]2CC[C@H](CCN3CCc4ccc(OCC(F)(F)F)nc4CC3)CC2)on1` [II-077], the Ki in assay [1] was 0.095 nM; in assay [2], > 1800 nM.
For `Cc1cc(OCC(=O)N[C@H]2CC[C@H](CCN3CCc4ccc(OCC(F)(F)F)nc4CC3)CC2)no1` [II-078], in that order: 0.075 nM and > 1800 nM.
Take `CCn1c(C(=O)N[C@H]2CC[C@H](CCN3CCc4ccc(OCC(F)(F)F)nc4CC3)CC2)cccc1=O` [II-081]: the Ki in assay [1] came out at 0.048 nM; in assay [2], 230 nM.
The matching figures for `Cc1ncc(CC(=O)N[C@H]2CC[C@H](CCN3CCc4nc(OCC(F)(F)F)sc4CC3)CC2)o1` [II-085]: 0.096 nM and 740 nM.
The matching figures for `Cn1cc2c(C(=O)N[C@H]3CC[C@H](CCN4CCc5ccc(OCC(F)(F)F)nc5CC4)OC3)cccc2n1` [II-087]: 0.059 nM and 260 nM.
As to `Cc1ncc(CC(=O)N[C@H]2CC[C@H](CCN3CCc4cn(CCC(F)(F)F)nc4CC3)CC2)s1` [II-088], the Ki in assay [1] was 7.4 nM; in assay [2], > 1900 nM.
For `Cc1ncc(CC(=O)N[C@H]2CC[C@H](CCN3CCc4nc(OCC5CC5)sc4CC3)CC2)s1` [II-090], in that order: 0.64 nM and > 1900 nM.
For `Cc1ncc(CC(=O)N[C@H]2CC[C@H](CCN3CCc4nc(OCC(C)(C)F)sc4CC3)CC2)s1` [II-099], in that order: 0.52 nM and > 1900 nM.
For `O=C(NCCCCN1CCc2ccc(OCC(F)(F)F)nc2CC1)c1cc2ccccc2[nH]1` [II-105], in that order: 0.11 nM and 1100 nM.
As for `Cc1nc(CC(=O)N[C@H]2CC[C@H](CCN3CCc4ccc(OCC(F)(F)F)nc4CC3)OC2)no1` [III-001], the Ki worked out at 0.5 nM in assay [1] and 1100 nM in assay [2].
`Cc1ncc(CC(=O)N[C@H]2CC[C@H](CCN3CCc4cc(C)c(OCC(F)F)nc4CC3)OC2)s1` [III-008]: the figures for the Ki in assay [1] and in assay [2] were 0.25 nM and 480 nM, respectively.
For `CN1Cc2c(C(=O)N[C@H]3CC[C@H](CCN4CCc5ccc(OCC(C)(F)F)nc5CC4)CC3)cccc2C1=O` [III-024], in that order: 0.012 nM and 140 nM.
The matching figures for `CC(C)C(=O)N[C@H]1CC[C@H](CCN2CCc3nc(OCC(F)(F)F)sc3CC2)CC1` [III-031]: 0.31 nM and 240 nM.
For `Cc1ncc(CC(=O)N[C@H]2CC[C@H](CCN3CCc4ccc(OC5CCOC5)nc4CC3)CC2)s1` (stereo partly drawn) [III-052], in that order: 1.1 nM and > 1800 nM.
For the compound `CC(Oc1nc2c(s1)CCN(CC[C@H]1CC[C@H](NC(=O)c3cccc4nn(C)cc34)CC1)CC2)C(F)(F)F` (stereo partly drawn) [III-063], the Ki in assay [1] was 0.13 nM; in assay [2] it was > 1900 nM.
Take `CC(Oc1nc2c(s1)CCN(CC[C@H]1CC[C@H](NC(=O)c3cccc4c3CN(C)C4=O)CC1)CC2)C(F)(F)F` (stereo partly drawn) [III-064]: the results for the Ki in assay [1] and in assay [2] were 0.026 nM and 640 nM, respectively.
The matching figures for `Cn1cc2c(C(=O)N[C@H]3CC[C@H](CCN4CCc5ccc(C6CC6)nc5CC4)CC3)cccc2n1` [III-074]: 0.66 nM and > 1800 nM.
Regarding `Cn1cc2c(C(=O)N[C@H]3CC[C@H](CCN4CCc5nc(OCC(C)(C)F)sc5CC4)CC3)cccc2n1` [III-076], the Ki is 0.73 nM in assay [1] and > 1700 nM in assay [2].
For `Cc1nnc(CC(=O)N[C@H]2CC[C@](F)(CCN3CCc4ccc(OCC(F)(F)F)nc4CC3)CC2)o1` [III-082], in that order: 0.45 nM and 410 nM.
With `Cc1ncc(OCC(=O)N[C@H]2CC[C@](F)(CCN3CCc4ccc(OCC(F)(F)F)nc4CC3)CC2)cn1` [III-088], the Ki in assay [1] came to 0.31 nM; in assay [2] it was 310 nM.
With `Cn1cc(CC(=O)N[C@H]2CC[C@](F)(CCN3CCc4ccc(OCC(F)(F)F)nc4CC3)CC2)cn1` [III-102], the Ki in assay [1] amounted to 0.11 nM; in assay [2], 400 nM.
For `Cc1cc(OCC(=O)N[C@H]2CC[C@](F)(CCN3CCc4ccc(OCC(F)(F)F)nc4CC3)CC2)no1` [III-104], in that order: 0.53 nM and > 1700 nM.
With `Cc1ncc(CC(=O)N[C@H]2CC[C@H](CCN3CCc4sc(OCC(F)(F)F)nc4C(C)C3)CC2)s1` (stereo partly drawn) [III-110], the Ki in assay [1] is 0.49 nM; in assay [2], 610 nM.
`Cn1c(C(=O)N[C@H]2CC[C@H](CCN3CCc4nc(OCC(F)(F)F)sc4CC3)CC2)cccc1=O` [III-128]: the Ki in assay [1] came to 0.12 nM; in assay [2], 370 nM.
The matching figures for `Cn1cc(/C=C/C(=O)N[C@H]2CC[C@H](CCN3CCc4nc(OCC(F)(F)F)sc4CC3)CC2)cn1` [III-138]: 0.057 nM and 44 nM.
For the compound `Cn1cc2c(C(=O)N[C@H]3CC[C@H](CCN4CCc5ccc(OC6CC(F)(F)C6)nc5CC4)CC3)cccc2n1` [III-155], the Ki was 0.25 nM in assay [1] and > 1700 nM in assay [2].
`Cn1cc2c(C(=O)N[C@H]3CC[C@H](CCN4CCc5nc(O[C@H]6C[C@H](F)C6)sc5CC4)CC3)cccc2n1` [III-158]: the figures for the Ki in assay [1] and in assay [2] were 0.34 nM and > 1700 nM, respectively.
For `CC(CF)Oc1nc2c(s1)CCN(CC[C@H]1CC[C@H](NC(=O)c3cccc4nn(C)cc34)CC1)CC2` (stereo partly drawn) [III-159], in that order: 0.91 nM and > 1700 nM.
For `Cc1ncc(OCC(=O)N[C@H]2CC[C@H](CCN3CCc4nc(OCC(F)(F)F)sc4CC3)OC2)cn1` [III-165], in that order: 0.81 nM and 670 nM.
In the case of `Cn1cc(/C=C/C(=O)N[C@H]2CC[C@H](CCN3CCc4nc(OCC(F)(F)F)sc4CC3)OC2)cn1` [III-168], the figures for the Ki in assay [1] and in assay [2] were 0.13 nM and 140 nM, respectively.
The matching figures for `Cc1cc2c(C(=O)N[C@H]3CC[C@H](CCN4CCc5nc(OCC(F)(F)F)sc5CC4)OC3)cccn2n1` [III-169]: 0.4 nM and 380 nM.
Turning to `Cc1cc(CC(=O)N[C@H]2CC[C@H](CCN3CCc4nc(OCC(F)(F)F)sc4CC3)OC2)on1` [III-171], the Ki is 0.47 nM in assay [1] and > 1700 nM in assay [2].
The matching figures for `Cn1cc(OCC(=O)N[C@H]2CC[C@H](CCN3CCc4nc(OCC(F)(F)F)sc4CC3)OC2)cn1` [III-175]: 0.68 nM and 650 nM.
On to `Cc1nc(CC(=O)N[C@H]2CC[C@H](CCN3CCc4nc(OCC(F)(F)F)sc4CC3)OC2)no1` [III-180], for which the Ki is 0.72 nM in assay [1] and 460 nM in assay [2].
As to `Cc1ncc(CC(=O)N[C@H]2CC[C@H](CCN3CCc4ccc(OCC(C)F)nc4CC3)CC2)s1` (stereo partly drawn) [III-203], the values for the Ki in assay [1] and in assay [2] were 0.79 nM and 1400 nM, respectively.
In the case of `Cc1ncc(CC(=O)N[C@H]2CC[C@H](C(F)CN3CCc4ccc(OCC(F)(F)F)nc4CC3)CC2)s1` (stereo partly drawn) [III-216], the Ki is 1.3 nM in assay [1] and > 1700 nM in assay [2].

The record behind these values is patent publication US10870660B2, “Nitrogen-containing condensed ring compounds having dopamine D3 antagonistic effect” (Shionogi & Co., Ltd., priority 2016, dated 2020).
